The source of these data is US11453660B2, “Androgen receptor and glucocorticoid receptor modulators” (ONCOSTELLAE, S.L., priority 2017, dated 2022).

A value given as a limit tells only on which side of the number the result lay.

The target of this assay is T1, AR-Receptor (Homo sapiens, UniProt P10275).
T1 sequence (P10275 1-920 Q868H): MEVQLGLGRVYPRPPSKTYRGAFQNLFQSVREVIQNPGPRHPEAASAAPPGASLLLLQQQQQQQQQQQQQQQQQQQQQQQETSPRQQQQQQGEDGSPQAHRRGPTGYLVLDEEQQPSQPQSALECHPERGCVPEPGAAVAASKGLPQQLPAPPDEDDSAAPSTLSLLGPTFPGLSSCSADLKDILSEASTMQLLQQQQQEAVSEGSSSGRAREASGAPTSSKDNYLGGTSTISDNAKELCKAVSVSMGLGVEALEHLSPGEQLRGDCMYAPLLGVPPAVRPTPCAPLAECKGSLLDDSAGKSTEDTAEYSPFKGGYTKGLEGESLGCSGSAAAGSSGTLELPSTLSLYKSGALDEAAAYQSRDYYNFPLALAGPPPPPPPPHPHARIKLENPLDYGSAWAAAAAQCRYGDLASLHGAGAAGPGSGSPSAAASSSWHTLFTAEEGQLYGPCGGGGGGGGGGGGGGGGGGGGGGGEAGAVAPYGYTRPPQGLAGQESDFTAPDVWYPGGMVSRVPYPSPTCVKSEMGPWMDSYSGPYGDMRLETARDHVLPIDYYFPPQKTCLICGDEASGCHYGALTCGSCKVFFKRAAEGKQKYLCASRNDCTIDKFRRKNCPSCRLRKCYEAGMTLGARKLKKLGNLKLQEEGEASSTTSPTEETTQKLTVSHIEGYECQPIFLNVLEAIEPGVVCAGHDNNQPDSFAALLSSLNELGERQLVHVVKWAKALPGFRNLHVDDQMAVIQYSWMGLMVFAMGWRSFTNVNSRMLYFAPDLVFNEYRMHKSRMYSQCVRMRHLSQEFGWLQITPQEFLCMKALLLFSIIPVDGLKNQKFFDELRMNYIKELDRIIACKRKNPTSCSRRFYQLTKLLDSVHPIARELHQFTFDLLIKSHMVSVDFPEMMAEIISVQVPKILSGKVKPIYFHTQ
The assay is described as follows: Functional Assay AR-Receptor (MDA-MB-453 cells, luciferase). In kind it is cell-based. The note with it: antagonist effect in the presence of DHT 1 nM, 24 h, luciferase luminescence, read-out: AR antag KB. The method, boiled down:
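MDA-MB-453 cells, 8000/well, were switched to medium with 0.1% FBS and exposed to compounds for 24 h at 37 °C. Antagonist mode used 1 nM DHT. After lysis and a freeze-thaw cycle, luciferase luminescence was read.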
What is called Kb is the equilibrium dissociation constant of an antagonist, usually derived from a functional assay. Consider `CC(=O)C1=C(C)NC(C)=C(C(=O)OCc2ccccc2)C1c1csc2ccccc12` (stereo not drawn) [Example B6, Benzyl 5-acetyl-4-(benzo[b]thiophen-3-yl)-2,6-dimethyl-1,4-dihydro-pyridine-3-carboxylate], for which the Kb fell in the range of 100 to 1000 nM.
Then `CC(=O)C1=C(C)NC(C)=C(C(=O)OCC2CCOCC2)C1c1csc2ccccc12` (stereo not drawn) [Example C2, (Tetrahydro-2H-pyran-4-yl)methyl 5-acetyl-4-(benzo[b]thiophen-3-yl)-2,6-dimethyl-1,4-dihydropyridine-3-carboxylate], with 100 to 1000 nM; and `CC(=O)C1=C(C)NC(C)=C(C(=O)OCC2CC2)C1c1csc2ncccc12` (stereo not drawn) [Example C24, Cyclopropylmethyl 5-acetyl-2,6-dimethyl-4-(thieno[2,3-b]pyridin-3-yl)-1,4-dihydropyridine-3-carboxylate], with at least 1000 nM.
Turning to `CC(=O)C1=C(C)NC(C)=C(C(=O)OC2CCCCC2)C1c1csc2ncccc12` (stereo not drawn) [Example C36, Cyclohexyl 5-acetyl-2,6-dimethyl-4-(thieno[2,3-b]pyridin-3-yl)-1,4-dihydropyridine-3-carboxylate], the Kb is at least 1000 nM.
In the case of `CC(=O)C1=C(C)NC(C)=C(C(=O)OCc2ccccc2)C1c1csc2ncccc12` (stereo not drawn) [Example C39, Benzyl 5-acetyl-2,6-dimethyl-4-(thieno[2,3-b]pyridin-3-yl)-1,4-dihydropyridine-3-carboxylate], the Kb is at least 1000 nM.
Under `CC(=O)C1=C(C)NC(C)=C(C(=O)OCc2ccccc2)C1c1csc2ccc(F)cc12` (stereo not drawn) [Example C41, Benzyl 5-acetyl-4-(5-fluorobenzo[b]thiophen-3-yl)-2,6-dimethyl-1,4-dihydropyridine-3-carboxylate] stands 100 to 1000 nM; under `CC(=O)C1=C(C)NC(C)=C(C(=O)OCc2ccccc2)C1c1csc2ccc(Cl)cc12` (stereo not drawn) [Example C42, Benzyl 5-acetyl-4-(5-chlorobenzo[b]thiophen-3-yl)-2,6-dimethyl-1,4-dihydropyridine-3-carboxylate], under 100 nM; under `CC(=O)C1=C(C)NC(C)=C(C(=O)OCC2CCOCC2)C1c1csc2ccc(Cl)cc12` (stereo not drawn) [Example C43, (Tetrahydro-2H-pyran-4-yl)methyl 5-acetyl-4-(5-chlorobenzo[b]thiophen-3-yl)-2,6-dimethyl-1,4-dihydropyridine-3-carboxylate], under 100 nM.
Then `CC(=O)C1=C(C)NC(C)=C(C(=O)OCC2CCOCC2)C1c1csc2ccc(F)cc12` (stereo not drawn) [Example C44, (Tetrahydro-2H-pyran-4-yl)methyl 5-acetyl-4-(5-fluorobenzo[b]thiophen-3-yl)-2,6-dimethyl-1,4-dihydropyridine-3-carboxylate], with 100 to 1000 nM; and `CC(=O)C1=C(C)NC(C)=C(C(=O)OCc2ccncc2)C1c1csc2ccc(F)cc12` (stereo not drawn) [Example C46, Pyridin-4-ylmethyl 5-acetyl-4-(5-fluorobenzo[b]thiophen-3-yl)-2,6-dimethyl-1,4-dihydropyridine-3-carboxylate], with 100 to 1000 nM; and `CC(=O)C1=C(C)NC(C)=C(C(=O)OCc2cccnc2)C1c1csc2ccccc12` (stereo not drawn) [Example C48, Pyridin-3-ylmethyl 5-acetyl-4-(benzo[b]thiophen-3-yl)-2,6-dimethyl-1,4-dihydropyridine-3-carboxylate], with 100 to 1000 nM.
With `CC(=O)C1=C(C)NC(C)=C(C(=O)OCc2cccnc2)C1c1csc2c(Br)cccc12` (stereo not drawn) [Example C58, Pyridin-3-ylmethyl 5-acetyl-4-(7-bromobenzo[b]thiophen-3-yl)-2,6-dimethyl-1,4-dihydropyridine-3-carboxylate], the Kb was 100 to 1000 nM.
Take `CC(=O)C1=C(C)NC(C)=C(C(=O)OCc2ccc(Br)cc2)C1c1csc2ncccc12` (stereo not drawn) [Example C65, 4-bromobenzyl 5-acetyl-2,6-dimethyl-4-(thieno[2,3-b]pyridin-3-yl)-1,4-dihydropyridine-3-carboxylate]: the Kb is 100 to 1000 nM.
Then `CC(=O)C1=C(C)NC(C)=C(C(=O)OCc2cccc(Br)c2)C1c1csc2ncccc12` (stereo not drawn) [Example C66, 3-bromobenzyl 5-acetyl-2,6-dimethyl-4-(thieno[2,3-b]pyridin-3-yl)-1,4-dihydropyridine-3-carboxylate], with under 100 nM; and `CC(=O)C1=C(C)NC(C)=C(C(=O)OCc2ccccc2Br)C1c1csc2ncccc12` (stereo not drawn) [Example C67, 2-bromobenzyl 5-acetyl-2,6-dimethyl-4-(thieno[2,3-b]pyridin-3-yl)-1,4-dihydropyridine-3-carboxylate], with under 100 nM.
Under `CC(=O)C1=C(C)NC(C)=C(C(=O)OC(C)(C)c2ccccc2)C1c1csc2ncccc12` (stereo not drawn) [Example C71, 2-phenylpropan-2-yl 5-acetyl-2,6-dimethyl-4-(thieno[2,3-b]pyridin-3-yl)-1,4-dihydropyridine-3-carboxylate] stands at least 1000 nM.
Under `CC(=O)C1=C(C)NC(C)=C(C(=O)OCc2cccc(C#N)c2)C1c1csc2ncccc12` (stereo not drawn) [Example C72, 3-Cyanobenzyl 5-acetyl-2,6-dimethyl-4-(thieno[2,3-b]pyridin-3-yl)-1,4-dihydropyridine-3-carboxylate] stands at least 1000 nM; under `CC(=O)C1=C(C)NC(C)=C(C(=O)OCc2ccc(C#N)cc2)C1c1csc2ncccc12` (stereo not drawn) [Example C73, 4-cyanobenzyl 5-acetyl-2,6-dimethyl-4-(thieno[2,3-b]pyridin-3-yl)-1,4-dihydropyridine-3-carboxylate], at least 1000 nM.
As for `COC(=O)C1=C(C=O)NC(C2CC2)=C(C(=O)OC)C1c1csc2c(C#N)cccc12` (stereo not drawn) [Example C117, Dimethyl 4-(7-cyanobenzo[b]thiophen-3-yl)-2-cyclopropyl-6-formyl-1,4-dihydropyridine-3,5-dicarboxylate], the Kb lay in the range of 100 to 1000 nM.
In the case of `COC(=O)C1=C(CO)NC(C2CC2)=C(C(=O)OC)C1c1csc2c(C#N)cccc12` (stereo not drawn) [Example C118, Dimethyl 4-(7-cyanobenzo[b]thiophen-3-yl)-2-cyclopropyl-6-(hydroxymethyl)-1,4-dihydropyridine-3,5-dicarboxylate], the Kb was in the range of 100 to 1000 nM.
Then `COC(=O)C1=C(C)NC(C=O)=C(C(=O)OC)C1c1csc2c(C#N)cccc12` (stereo not drawn) [Example C119, Dimethyl 4-(7-cyanobenzo[b]thiophen-3-yl)-2-formyl-6-methyl-1,4-dihydropyridine-3,5-dicarboxylate], with 100 to 1000 nM; and `CC1=C(C#N)C(c2csc3c(C#N)cccc23)C(C(=O)OCC2CC2)=C(N)N1` (stereo not drawn) [Example D24, cyclopropylmethyl 2-amino-5-cyano-4-(7-cyanobenzo[b]thiophen-3-yl)-6-methyl-1,4-dihydropyridine-3-carboxylate], with 100 to 1000 nM.
Turning to `COC(=O)C1=C(C)NC(N)=C(C(=O)OC2CCCC2)C1c1csc2c(C#N)cccc12` (stereo not drawn) [Example D27, 3-Cyclopentyl 5-methyl 2-amino-4-(7-cyanobenzo[b]thiophen-3-yl)-6-methyl-1,4-dihydropyridine-3,5-dicarboxylate], the antagonist equilibrium constant (Kb) lay within 100 to 1000 nM.
Under `CC(=O)C1=C(C)NC(N)=C(C(=O)OCC2CCCCC2)C1c1csc2c(C#N)cccc12` (stereo not drawn) [Example D30, Cyclohexylmethyl 5-acetyl-2-amino-4-(7-cyanobenzo[b]thiophen-3-yl)-6-methyl-1,4-dihydropyridine-3-carboxylate] stands 100 to 1000 nM.
